Data published in patent US7579005B2, “Process for recombinant expression and purification of antimicrobial peptides using periplasmic targeting signals as precipitable hydrophobic tags” (E. I. du Pont de Nemours and Company, priority 2005, dated 2009).
Residues, ends and D or L forms follow the SMILES beside them.

Assays:
[1] = Effect of pH on solubility of OmpAPerSD and PG1; assay type: physicochemical; settings: chemically synthesized samples, pH 1 to 12, 15 minutes at room temperature, supernatant by BCA total protein; FIG. 6
Procedure: Stock solutions of chemically synthesized samples of OmpAPerSD and PG1 were made in 0.1N NaOH. The pH of each sample was adjusted by the addition of 0.2 M sodium phosphate buffer or 0.1N HCl. Finally, water was added to make the final volume of each sample the same and the samples were mixed by vortexing. After 15 minutes at room temperature all samples were centrifuged at 13,000×g in a micro-centrifuge. The supernatants were carefully separated from the insoluble precipitates and analyzed for protein by the BCA total protein method. Protein determinations were made using standard solutions of synthetic OmpAPerSD and PG1, respectively, in 0.1N NaOH. […] The difference in pH solubility of OmpAPerSD and PG1 peptides, with maximal difference at low pH, lends to their ready separation by centrifugation or filtration.

E. coli expression host = assay: Growth of E. coli host cells expressing the fusion proteins (shake flask studies); assay type: cell-based; settings: tryptophan induction
Procedure: Single colonies of E. coli containing pLH117 or pLH119 were grown in Rich Medium overnight at 30° C. at 250 rpm. A fresh culture was started the following day using 10% of the overnight growth diluted in Induction media and grown to an OD550 of 0.8. Induction media had no tryptophan (1×M9 salts, 0.2% casamino acids, 0.5% glucose, 1 mM MgCl2, and 100 ug/ml ampicillin). To facilitate induction, tryptophan was added for a final concentration of 100 μg/ml and flasks were incubated at 37° C. with shaking at 300 rpm. Samples were taken pre-induction and at 4, 8, and 12 hr post induction. Cell pellets were collected by centrifugation and analyzed for protein production.
Single colonies of E. coli containing pLH121 or pLH122 were grown in Rich Medium overnight at 30° C. at 250 rpm. A fresh culture was started the following day using 10% of the overnight growth in Induction medium and grown to an OD550 of 1.0 at 37°. To facilitate induction, tryptophan was added for a final concentration of 100 μg/ml. Samples were taken pre-induction and at 5 hr post induction. Cell pellets were collected by centrifugation and analyzed for protein production.

| Compound | solubility over a range of pH [1] | growth of cells expressing the fusion protein versus control cells containing only pLEX (E. coli expression host) |
| --- | --- | --- |
| CC[C@H](C)[C@H](NC(=O)[C@H](C)NC(=O)[C@@H](NC(=O)[C@H](C)NC(=O)[C@@H](NC(=O)[C@H](CCCCN)NC(=O)[C@H](CCCCN)NC(=O)[C@@H](N)CCSC)[C@@H](C)O)[C@@H](C)CC)C(=O)N[C@@H](C)C(=O)N[C@H](C(=O)N[C@@H](C)C(=O)N[C@@H](CC(C)C)C(=O)N[C@@H](C)C(=O)NCC(=O)N[C@@H](Cc1ccccc1)C(=O)N[C@@H](C)C(=O)N[C@H](C(=O)N[C@H](C(=O)N[C@@H](C)C(=O)N[C@@H](CCC(N)=O)C(=O)N[C@@H](C)C(=O)N[C@@H](CC(=O)O)C(=O)O)C(C)C)[C@@H](C)O)C(C)C [OmpAPerSD] (H-MKKTAIAIAVALAGFATVAQAD-OH; N-terminus and C-terminus assumed) | increases with increasing pH | – |
| CC(C)C[C@H](NC(=O)[C@H](CCCCN)NC(=O)[C@H](CC(C)C)NC(=O)[C@H](CC(C)C)NC(=O)[C@H](CCCCN)NC(=O)[C@H](CCCCN)NC(=O)[C@H](CC(C)C)NC(=O)CNC(=O)[C@H](CCCCN)NC(=O)[C@H](CC(C)C)NC(=O)[C@H](CC(C)C)NC(=O)[C@H](CCCCN)NC(=O)[C@H](CCCCN)NC(=O)[C@H](CC(C)C)NC(=O)CNC(=O)[C@H](CCCCN)NC(=O)[C@@H]1CCCN1)C(=O)O [P16KGLG1] (H-PKGLKKLLKGLKKLLKL-OH; N-terminus and C-terminus assumed) | does not appear to be pH dependent | – |
| OmpA targeting signal sequence-16KGLG1-6His: fusion protein of OmpA periplasmic targeting signal, 16KGLG1 and 6His tag, expressed from pLH119 (MKKTAIAIAVALAGFATVAQAKGLKKLLKGLKKLLKLHHHHHH; OmpA PerS-G1-6His fusion protein) | – | grew at similar rates as control cells |
